Data reported in the supplement of paper PMC10307832.

How the values were obtained:
Experiment in all cases: relative viability (nuclei count vs DMSO), 5 days (fraction); higher = more cells survive
[1] = compound: CCN(CC)CCNC(=O)c1c(C)[nH]c(/C=C2\C(=O)Nc3ccc(F)cc32)c1C [Sunitinib] + CC(=O)c1c(C)c2cnc(Nc3ccc(N4CCNCC4)cn3)nc2n(C2CCCC2)c1=O [Palbociclib] (partner 0.5 µM)
Outline: (§1)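 Dosing by pin tool came one day after lung cancer cell lines were seeded in 1536-well plates, using either one drug or a fixed anchor-drug dose plus five library-drug doses (not always all listed) in √10 steps. After 5 days, nuclei were counted on 4× images. Relative viability is treated-well nuclei count divided by vehicle-well nuclei count, and values are medians of duplicate plates.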

[2] = compound: CCN(CC)CCNC(=O)c1c(C)[nH]c(/C=C2\C(=O)Nc3ccc(F)cc32)c1C [Sunitinib] + CCNC(=O)c1noc(-c2cc(C(C)C)c(O)cc2O)c1-c1ccc(CN2CCOCC2)cc1 [Luminespib] (partner 0.01 µM)
Outline: as §1

[3] = compound: CCN(CC)CCNC(=O)c1c(C)[nH]c(/C=C2\C(=O)Nc3ccc(F)cc32)c1C [Sunitinib] + COc1cccc2cc(-c3nc([C@H]4CC[C@H](C(=O)O)CC4)n4ncnc(N)c34)[nH]c12 [OSI-027] (partner 0.5 µM)
Outline: as §1

[4] = compound: CCN(CC)CCNC(=O)c1c(C)[nH]c(/C=C2\C(=O)Nc3ccc(F)cc32)c1C [Sunitinib] + CS(=O)(=O)N1CCN(Cc2cc3nc(-c4cccc5[nH]ncc45)nc(N4CCOCC4)c3s2)CC1 [Pictilisib] (partner 1 µM)
Outline: as §1

Cell Line	relative viability ([1]; first compound 0.02 µM)	relative viability ([1]; first compound 0.06325 µM)	relative viability ([1]; first compound 0.2 µM)	relative viability ([1]; first compound 0.6325 µM)	relative viability ([1]; first compound 2 µM)	relative viability ([2]; first compound 0.02 µM)	relative viability ([2]; first compound 0.06325 µM)	relative viability ([2]; first compound 0.2 µM)	relative viability ([2]; first compound 0.6325 µM)	relative viability ([2]; first compound 2 µM)	relative viability ([3]; first compound 0.02 µM)	relative viability ([3]; first compound 0.06325 µM)	relative viability ([3]; first compound 0.2 µM)	relative viability ([3]; first compound 0.6325 µM)	relative viability ([3]; first compound 2 µM)	relative viability ([4]; first compound 0.02 µM)	relative viability ([4]; first compound 0.06325 µM)	relative viability ([4]; first compound 0.6325 µM)	relative viability ([4]; first compound 2 µM)	relative viability ([4]; first compound 0.2 µM)
NCI-H647	0.328	0.398	0.406	0.43	0.316	0.232	0.143	0.131	0.137	0.154	0.631	0.725	0.562	0.821	0.575	0.302	0.381	0.373	0.454	
NCI-H2347	0.454	0.43	0.453	0.422	0.472	0.486	0.355	0.377	0.238	0.558	0.451	0.507	0.67	0.384	0.552	0.554	0.91	0.705	0.912	0.691
EKVX	0.423	0.453	0.508	0.403	0.463	0.811	0.918	0.747	0.942	0.936	0.671	0.728	0.771	0.741	0.666	0.456	0.437	0.495	0.577	0.578
NCI-H650	0.298	0.338	0.308	0.355	0.396	0.914	0.83	0.766	0.803	0.716	0.535	0.553	0.524	0.586	0.514	0.828	1.09	0.858	0.843	0.932
NCI-H1915	0.472	0.545	0.573	0.502	0.579	0.5	0.846	0.822	0.869	0.83	0.605	0.645	0.71	0.612	0.618	0.958	1.01	0.977	1.02	1.02
EMC-BAC-2	0.505	0.534	0.526	0.556	0.579	1.11	1.2	1.11	1.16	1.14	0.372	0.41	0.423	0.4	0.502	0.501	0.601	0.548	0.565	0.589
NCI-H1792	0.627	0.661	0.763	0.612	0.734		0.38	0.622	0.483	0.426	0.667	0.716	0.829	0.691	0.481	0.242	0.291	0.242	0.265	0.243
BEN	0.487	0.467	0.452	0.445	0.496	0.414	0.453	0.396	0.53	0.333	0.306	0.32	0.281	0.3	0.273	0.494	0.552	0.566	0.52	0.615
NCI-H727	0.598	0.697	0.671	0.616	0.667	0.429	0.498	0.456	0.457	0.313	0.717	0.574	0.757	0.687	0.631	0.278	0.417	0.325	0.344	0.542
H3255	0.313	0.299	0.302	0.311	0.331	0.944	1.03		1.05	0.952	0.66	0.583	0.645	0.621	0.666	0.465	0.495	0.514	0.495	0.519
NCI-H661	0.383	0.444	0.397	0.41	0.47	0.896	0.934	0.949	0.896	0.83	0.646	0.785	0.801	0.767	0.704	0.385	0.362	0.319	0.441	0.368
NCI-H1993	0.635	0.7	0.687	0.815	0.622	0.741	0.941	0.866	0.654	0.79	0.598	0.482	0.551	0.568	0.554	0.777	0.913	0.832	0.92	0.808
NCI-H2085	0.454	0.5	0.472	0.494	0.494	0.494	0.399	0.489	0.46	0.377	0.761	0.768	0.73	0.96	1.06	0.431	0.476	0.519	0.555	0.519
NCI-H838	0.221	0.23	0.237	0.227	0.2	0.351	0.328	0.301	0.261	0.234	0.386	0.358	0.423	0.319	0.317	0.409	0.499	0.487	0.361	0.506
NCI-H1944	0.337	0.317	0.378	0.346	0.339	0.738	0.722	0.752	0.769	0.638	0.365	0.437	0.514	0.513	0.409	0.315	0.379	0.337	0.374	0.412
